Data reported in US20140378378A1, “ERYTHROPOIETIN-DERIVED PEPTIDE AND USE THEREFOR” (priority 2011, published 2014).

Test system: retinal neurocytes
Test: Cell survival of retinal neurocytes, MTT assay, 72 hours, hypoxic conditions
Assay type: cell-based, rat
Settings: for cell survival rate: normal culture = 100%
Procedure: Eyes of a […] rat were removed and retina of the eyes were separated and then put into solution 1. Retinal tissues were treated in trypsin at a temperature of 37° C. for 10 minutes and then centrifuged at 180 g for 5 minutes.
After centrifugation, a supernatant solution was discarded and all collected tissues were put into a stop solution. Aggregated tissues were disentangled by using a pipette and then centrifuged again at 180 g for 5 minutes. Separated cells were mixed with 10% FBS-MEM at a density of 1×10^6 cells/mL. 100 ul of cells were inoculated in each well of a 96-well plate and then cultured for 24 hours.
Thereafter, the culture medium was removed from the well plate for stabilization, a new culture medium and 5 uM Ara-c (cytosine arabinoside, sigma, C1768) were added thereto, cultured for 48 hours, the culture medium was removed again after 48 hours, a new culture medium was added thereto, and then cultured in an incubator having conditions of […], 5% CO2, and a temperature of 37° C. for the next experiment. Thereafter, the culture medium was removed for stabilization after another 48 hours, then a new culture medium was added thereto, and then cultured in an incubator under conditions of […], 5% CO2, and a temperature of 37° C. for the next experiment.
Cells were seeded in a 96-well plate at a density of 2×10^4 cells/well and 200 ul for each well. In this regard, cell confluence was set to be about 70% to about 80%. After 24 hours, when the cells have stabilized, a 26 gauge or 28 gauge needle was used to remove a preexisting medium from the wells. 200 ul of PBS free of serum and nutrients was added to each well, the wells were divided into EPO treatment groups and MKX-2 treatment groups, which were further divided into experimental groups according to concentrations of 0 nM, 0.1 nM, 1 nM, 10 nM, 100 nM, and 1000 nM and then treated with a drug for 72 hours under hypoxic conditions, and surviving […] neurocytes were quantitatively analyzed in an […]. The EPO used was an Eporon injection (Dong-A Pharmaceuticals, Korea). All experimental groups for each concentration included 7 wells. After a certain treatment time, 3-[4,5-dimethylthiazol-2-yl]-2,5-diphenyl tetrazolium bromide (MTT, Sigma, M2128) that was dissolved in a phosphate buffered saline (PBS) and then sterilization filtered by using a membrane filter having a thickness of 0.22 um was added to each well in an amount of 100 ul at a concentration of 1 mg/ml. In this regard, an MIT reagent was used after wrapping the MTT reagent with a foil sheet to block it from light. […]
Thereafter, an ELISA reader was used to measure an O.D. value at 570 nm for quantitatively analysis. […]

With “EPO: erythropoietin; the EPO used was an Eporon injection (Dong-A Pharmaceuticals, Korea)” the “increase of cell survival rate compared to 0 nM” value (0.1 nM and 1 nM) was “without any statistical significance”, the cell survival rate (10 nM) was 128.03% and the cell survival rate (100 nM) was 127.6%. The cell survival rate (1000 nM) was 124.77%.
